From patent US11897904B2, “Herbicidally active bicyclic benzamides” (Bayer Aktiengesellschaft, priority 2017, dated 2024)

What was measured:
STEME [1] = test: Post-emergence herbicidal action; format: in vivo, Stellaria media; conditions: rated visually after about 3 weeks vs untreated controls
Procedure: (§1) 2. Post-Emergence Herbicidal Action and Crop Plant Compatibility
(§2) Seeds of monocotyledonous and dicotyledonous weeds and crop plants are placed in sandy loam in plastic or organic planting pots, covered with soil and cultivated in a greenhouse under controlled growth conditions. 2 to 3 weeks after sowing, the test plants are treated at the one-leaf stage. The compounds of the invention, formulated in the form of wettable powders (WP) or as emulsion concentrates (EC), are then sprayed onto the green parts of the plants as aqueous suspension or emulsion with addition of 0.5% additive at a water application rate of […] (converted). After the test plants had been kept in the greenhouse under optimum growth conditions for about 3 weeks, the activity of the preparations is rated visually in comparison to untreated controls. The tables below show the herbicidal activity of numerous compounds according to the invention against important harmful plants. For example, 100% activity=the plants have died, 0% activity=like control plants.

VIOTR [2] = test: Post-emergence herbicidal action; format: in vivo, Viola tricolor; conditions: rated visually after about 3 weeks vs untreated controls
Procedure: as §1, §2

PHBPU = test: Post-emergence herbicidal action; format: in vivo, Ipomoea purpurea; conditions: rated visually after about 3 weeks vs untreated controls
Procedure: as §1, §2

VERPE [3] = test: Pre-emergence herbicidal action; format: in vivo, Veronica persica; conditions: 320 g/ha, scored visually after about 3 weeks vs untreated controls
Source text: (§3) 1. Pre-Emergence Herbicidal Action and Crop Plant Compatibility
(§4) Seeds of monocotyledonous and dicotyledonous weed plants and crop plants are placed in plastic or organic planting pots and covered with soil. The compounds of the invention, formulated in the form of wettable powders (WP) or as emulsion concentrates (EC), are then applied onto the surface of the covering soil as aqueous suspension or emulsion with addition of 0.5% additive at a water application rate of 600 l/ha (converted). After the treatment, the pots are placed in a greenhouse and kept under good growth conditions for the trial plants. After about 3 weeks, the effect of the preparations is scored visually in comparison with untreated controls as percentages. The tables below show the herbicidal activity of numerous compounds according to the invention against important harmful plants. For example, 100% activity=the plants have died, 0% activity=like control plants.

AMARE [4] = test: Post-emergence herbicidal action; format: in vivo, Amaranthus retroflexus; conditions: rated visually after about 3 weeks vs untreated controls
Procedure: as §1, §2

ABUTH [5] = test: Post-emergence herbicidal action; format: in vivo, Abutilon theophrasti; conditions: post-emergence, rated visually after about 3 weeks vs untreated controls
Procedure: as §1, §2

AMARE [6] = test: Pre-emergence herbicidal action; format: in vivo, Amaranthus retroflexus; conditions: scored visually after about 3 weeks vs untreated controls
Source text: as §3, §4

MATIN [7] = test: Pre-emergence herbicidal action; format: in vivo, Matricaria inodora; conditions: pre-emergence, scored visually after about 3 weeks vs untreated controls
Source text: as §3, §4

MATIN [8] = test: Post-emergence herbicidal action; format: in vivo, Matricaria inodora; conditions: 80 g/ha, rated visually after about 3 weeks vs untreated controls
Procedure: as §1, §2

ABUTH [9] = test: Pre-emergence herbicidal action; format: in vivo, Abutilon theophrasti; conditions: pre-emergence, scored visually after about 3 weeks vs untreated controls
Source text: as §3, §4

SETVI [10] = test: Pre-emergence herbicidal action; format: in vivo, Setaria viridis; conditions: pre-emergence, 320 g/ha, scored visually after about 3 weeks vs untreated controls
Source text: as §3, §4

STEME [11] = test: Pre-emergence herbicidal action; format: in vivo, Stellaria media; conditions: scored visually after about 3 weeks vs untreated controls
Source text: as §3, §4

VIOTR [12] = test: Pre-emergence herbicidal action; format: in vivo, Viola tricolor; conditions: scored visually after about 3 weeks vs untreated controls
Source text: as §3, §4

ECHCG [13] = test: Post-emergence herbicidal action; format: in vivo, Echinochloa crus-galli; conditions: 80 g/ha, rated visually after about 3 weeks vs untreated controls
Procedure: as §1, §2

SETVI [14] = test: Post-emergence herbicidal action; format: in vivo, Setaria viridis; conditions: 80 g/ha, rated visually after about 3 weeks vs untreated controls
Procedure: as §1, §2

ECHCG [15] = test: Pre-emergence herbicidal action; format: in vivo, Echinochloa crus-galli; conditions: 320 g/ha, scored visually after about 3 weeks vs untreated controls
Source text: as §3, §4

VERPE [16] = test: Post-emergence herbicidal action; format: in vivo, Veronica persica; conditions: 80 g/ha, rated visually after about 3 weeks vs untreated controls
Procedure: as §1, §2

## Cn1nnnc1NC(=O)c1ccc(C(F)(F)F)c2c1SC[S+]2[O-] (centres unmarked) [Example 2-255]
STEME [1]; 20 g/ha
  herbicidal activity STEME: 80%
VIOTR [2]; 20 g/ha
  herbicidal activity VIOTR: 80%

## Cn1nnnc1NC(=O)c1ccc(C(F)F)c2c1SCS2 [Example 2-22]
PHBPU; 20 g/ha
  herbicidal activity PHBPU: 80%
VIOTR [2]; 20 g/ha
  herbicidal activity VIOTR: 100%

## Cn1nnnc1NC(=O)c1ccc(S(C)(=O)=O)c2c1OC(F)(F)O2 [Example 2-15]
VERPE [3]
  herbicidal activity VERPE: 90%
AMARE [4]; 80 g/ha
  herbicidal activity AMARE: 80%

## CSc1ccc(C(=O)Nc2nnnn2C)c2c1SCS2 [Example 2-253]
ABUTH [5]; 20 g/ha
  herbicidal activity ABUTH: 90%

## Cc1ccc(C(=O)Nc2nnnn2C)c2c1S(=O)(=O)CO2 [Example 2-80]
AMARE [6]; 320 g/ha
  herbicidal activity AMARE: 90%
MATIN [7]; 320 g/ha
  herbicidal activity MATIN: 80%
AMARE [4]; 80 g/ha
  herbicidal activity AMARE: 90%
MATIN [8]
  herbicidal activity MATIN: 80%
STEME [1]; 80 g/ha
  herbicidal activity STEME: 90%
VIOTR [2]; 80 g/ha
  herbicidal activity VIOTR: 90%

## CC1Oc2c(C(=O)Nc3nnnn3C)ccc(C(F)(F)F)c2S1 (centres unmarked) [Example 2-94, 2-methyl-4-(trifluoromethyl)-1,3-benzoxathiolane-N-(1-methyltetrazol-5-yl)-7-carboxamide]
ABUTH [9]; 320 g/ha
  herbicidal activity ABUTH: 90%
AMARE [6]; 320 g/ha
  herbicidal activity AMARE: 100%
SETVI [10]
  herbicidal activity SETVI: 100%
STEME [11]; 320 g/ha
  herbicidal activity STEME: 100%
VIOTR [12]; 320 g/ha
  herbicidal activity VIOTR: 100%
ABUTH [5]; 80 g/ha
  herbicidal activity ABUTH: 90%
AMARE [4]; 80 g/ha
  herbicidal activity AMARE: 90%
ECHCG [13]
  herbicidal activity ECHCG: 80%
SETVI [14]
  herbicidal activity SETVI: 80%
STEME [1]; 80 g/ha
  herbicidal activity STEME: 100%
VIOTR [2]; 80 g/ha
  herbicidal activity VIOTR: 80%

## Cn1nnnc1NC(=O)c1ccc(C(F)(F)F)c2c1S(=O)(=O)CS2(=O)=O [Example 2-43]
ABUTH [9]; 80 g/ha
  herbicidal activity ABUTH: 100%
AMARE [6]; 80 g/ha
  herbicidal activity AMARE: 100%
MATIN [7]; 80 g/ha
  herbicidal activity MATIN: 80%
STEME [11]; 80 g/ha
  herbicidal activity STEME: 90%
VIOTR [12]; 80 g/ha
  herbicidal activity VIOTR: 100%
AMARE [4]; 20 g/ha
  herbicidal activity AMARE: 80%
VIOTR [2]; 20 g/ha
  herbicidal activity VIOTR: 90%

## CCn1nnnc1NC(=O)c1ccc(C(F)(F)F)c2c1OCS2 [Example 3-52]
ABUTH [9]; 320 g/ha
  herbicidal activity ABUTH: 90%
AMARE [6]; 320 g/ha
  herbicidal activity AMARE: 100%
ECHCG [15]
  herbicidal activity ECHCG: 90%
MATIN [7]; 320 g/ha
  herbicidal activity MATIN: 90%
SETVI [10]
  herbicidal activity SETVI: 90%
STEME [11]; 320 g/ha
  herbicidal activity STEME: 100%
VERPE [3]
  herbicidal activity VERPE: 80%
VIOTR [12]; 320 g/ha
  herbicidal activity VIOTR: 90%
ABUTH [5]; 80 g/ha
  herbicidal activity ABUTH: 80%
AMARE [4]; 80 g/ha
  herbicidal activity AMARE: 100%
ECHCG [13]
  herbicidal activity ECHCG: 100%
MATIN [8]
  herbicidal activity MATIN: 90%
PHBPU; 80 g/ha
  herbicidal activity PHBPU: 100%
SETVI [14]
  herbicidal activity SETVI: 100%
STEME [1]; 80 g/ha
  herbicidal activity STEME: 100%
VERPE [16]
  herbicidal activity VERPE: 100%
VIOTR [2]; 80 g/ha
  herbicidal activity VIOTR: 100%

## Cc1ccc(C(=O)Nc2nnnn2C)c2c1SCO2 [Example 2-50]
PHBPU; 80 g/ha
  herbicidal activity PHBPU: 80%

## Cn1nnnc1NC(=O)c1ccc(C(F)(F)F)c2c1SCS2 [Example 2-21, 7-(trifluoromethyl)-1,3-benzodithiolane-N-(1-methyltetrazol-5-yl)-4-carboxamide]
STEME [11]; 80 g/ha
  herbicidal activity STEME: 90%
STEME [1]; 20 g/ha
  herbicidal activity STEME: 80%
VIOTR [2]; 20 g/ha
  herbicidal activity VIOTR: 80%

## CSc1ccc(C(=O)Nc2nnnn2C)c2c1OC(F)(F)O2 [Example 2-13]
VERPE [3]
  herbicidal activity VERPE: 90%
ABUTH [5]; 80 g/ha
  herbicidal activity ABUTH: 80%
AMARE [4]; 80 g/ha
  herbicidal activity AMARE: 80%
STEME [1]; 80 g/ha
  herbicidal activity STEME: 80%
VERPE [16]
  herbicidal activity VERPE: 90%

## CCOC1Oc2c(C(=O)Nc3nnnn3C)ccc(C(F)(F)F)c2S1 (centres unmarked) [Example 2-130]
ABUTH [9]; 80 g/ha
  herbicidal activity ABUTH: 100%
STEME [11]; 80 g/ha
  herbicidal activity STEME: 100%
VIOTR [12]; 80 g/ha
  herbicidal activity VIOTR: 100%
ABUTH [5]; 20 g/ha
  herbicidal activity ABUTH: 90%
VIOTR [2]; 20 g/ha
  herbicidal activity VIOTR: 90%
